Data from US9463210B1, “Method for alleviating cravings and discomfort associated with smoking cessation8” (priority 2015, dated 2016).
Read-outs that look alike come from different tables or passages of the source.

What was measured:
[1] = molecular target: acetylcholinesterase (AChE) (Homo sapiens, UniProt P22303); details: colorimetric method; cited from earlier work
[2] = test system: Dopamine beta-hydroxylase (DBH) mRNA in PC12 cells; details: cited from earlier work
[3] = test system: tyrosine hydroxylase (TH) mRNA in PC12 cells; details: cited from earlier work
[4] = test system: Kuming mice; details: acute toxicity study; cited from earlier work
[5] = test system: mouse microglial cell line MG6; details: cited from earlier work
[6] = test system: NO production; details: cited from earlier work
[7] = test system: NF-κB pathway; details: cited from earlier work
[8] = test system: mice ear edema; details: cited from earlier work
[9] = Human equivalent dose estimate of the forskolin LD50 (Reagan-Shaw)
[10] = test system: Rat; details: in vivo; cited from earlier work
[11] = test system: Rat; details: cited from earlier work
[12] = test system: isolated rat lungs; details: dose-dependent; cited from earlier work
[13] = test system: mouse endothelial cells; details: cited from earlier work
[14] = cited from earlier work; for half-life: oral
[15] = test system: diabetic and at-risk-of-diabetes patients; details: 1.5 to 3 g daily for several years; cited from earlier work
[16] = test system: mouse; details: cited from earlier work
[17] = cited from earlier work
[18] = oral intakes up to 4.6 grams per day; cited from earlier work

Chain of acetylcholinesterase (AChE) (P22303 32-614, species assumed): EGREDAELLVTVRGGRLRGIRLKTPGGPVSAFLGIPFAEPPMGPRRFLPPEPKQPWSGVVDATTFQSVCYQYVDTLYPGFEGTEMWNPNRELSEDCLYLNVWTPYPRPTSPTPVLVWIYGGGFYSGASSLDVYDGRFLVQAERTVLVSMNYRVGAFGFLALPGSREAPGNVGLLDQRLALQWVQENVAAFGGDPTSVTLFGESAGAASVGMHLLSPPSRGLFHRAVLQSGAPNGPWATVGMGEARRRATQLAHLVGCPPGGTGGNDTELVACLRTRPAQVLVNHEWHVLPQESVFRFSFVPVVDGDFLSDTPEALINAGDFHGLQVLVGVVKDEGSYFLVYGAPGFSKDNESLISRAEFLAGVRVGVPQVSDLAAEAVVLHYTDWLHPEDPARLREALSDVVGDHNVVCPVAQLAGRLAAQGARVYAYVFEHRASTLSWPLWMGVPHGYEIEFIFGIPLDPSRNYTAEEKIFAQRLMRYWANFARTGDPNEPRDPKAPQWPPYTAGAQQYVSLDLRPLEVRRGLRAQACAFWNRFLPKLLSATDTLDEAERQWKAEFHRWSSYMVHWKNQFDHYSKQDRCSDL

CC1=CCC2C(C1)C2(C)C (single isomer, unassigned; (+)) [(+)-3-carene]
Inhibition of AChE [1]: potent inhibitors

CC1=CC[C@@H]2C[C@H]1C2(C)C [(+)-alpha-pinene]
Inhibition of AChE [1]: potent inhibitors

CC1=CC[C@H]2C[C@@H]1C2(C)C [(−)-alpha-pinene]
Inhibition of AChE [1]: potent inhibitors

CN1CCCC1c1cccnc1 (centres unmarked) [Nicotine]
increase of DBH mRNA levels [2]: 3.1 fold
increase of TH mRNA levels [3]: 3.3 fold

CC(C)c1cc2c(c(O)c1O)[C@@]1(C(=O)O)CCCC(C)(C)[C@@H]1CC2 [carnosic acid]
oral lethal dose (LD50) [4]: 7100 mg/kg of body weight
NO production ([5]; associated with decrease in inducible NO synthase): inhibited
cell survival ([5]; at the concentrations used): Neither CA nor LPS affected cell survival
LPS-induced activation of MG6 cells ([5]; in vitro): inhibited

CC(C)=CCCC(C)=CC=O [citral]
NO production inhibitory activity, IC50 [6]: 13.18 µg/mL
activity on COX-2 [7]: could not efficiently suppress
expression of IKK, iNOS, and nuclear NF-κB ([7]; dose-dependent): decreased
inflammation reduction, ear edema ([8]; 0.1 mg per ear): 22%
inflammation reduction, ear edema ([8]; 0.3 mg per ear): 83%

C=C[C@@]1(C)CC(=O)[C@]2(O)[C@@]3(C)[C@@H](O)CCC(C)(C)[C@@H]3[C@H](O)[C@H](OC(C)=O)[C@@]2(C)O1 [forskolin]
estimated LD50 in a person ([9]; 100 pound (45.4 Kg) person): 18,773.51 mg
LD50 ([9]; rat, oral, 2550×(6/37), Reagan-Shaw, read-out: HED of the rat LD50): 413 mg/kg
oral LD50 (rat) [10]: 2,550 mg/kg

NC(=O)c1cccnc1 [niacinamide, nicotinamide]
LD50 [11]: 3500 mg/kg
PMA-induced pathophysiological and biochemical changes (acute lung injury) [12]: diminished
SEB-induced endothelial NO production ([13]; IFN-primed endothelial cells): significantly reduced
IFN-gamma induction of endothelial class II MHC surface antigen [13]: markedly reduced
iNOS mRNA levels [13]: reduced
half-life cautiously assumed for humans ([14]; agreement of both studies): 4 h
effect on blood pressure, pulse or body temperature ([14]; human, oral doses of 1-6 g): no detectable effect
half-life ([14]; human, 1-g dose): ~1.5 h
half-life ([14]; human, 2 g): ~4 h
half-life ([14]; human, 4 and 6 g): 7 to 9 h
effect on biochemical parameters including liver and kidney function tests [15]: no effect
LD50 [16]: 2500 mg/kg

CNCC(=O)O [sarcosine, N-methylglycine]
safety ([17]; 2 and 4 gm/d for one week): appears to be safe
time to peak concentration in serum ([17]; human, 2 and 4 gm/d): two

phosphatidylcholine [PC]
tolerability [18]: very well tolerated

B1: interleukin-10: interleukin-10 (protein, UniProt P22301 19-178, looked up)
Interleukin-10: SPGQGTQSENSCTHFPGNLPNMLRDLRDAFSRVKTFFQMKDQLDNLLLKESLLEDFKGYLGCQALSEMIQFYLEEVMPQAENQDPDIKAHVNSLGENLKTLRLRLRRCHRFLPCENKSKAVEQVKNAFNKLQEKGIYKAMSEFDIFINYIEAYMTMKIRN
IFN-gamma induction of endothelial class II MHC surface antigen [13]: no effect
SEB-induced endothelial NO production [13]: significantly reduced
iNOS mRNA levels [13]: did not consistently reduce
